From article PMC5869712 (Scientific Reports, 2018)
Like-named read-outs stand apart in the source and are kept apart here.

What was measured:
[1] = target: T1, MKK4 (Mus musculus, UniProt P47809); experiment: Eurofins Kinase Profiler panel; format: biochemical; conditions: read-out: % inhibition (1μM), DMSO control=100%, lower=stronger
T1 construct: purchased Eurofins KinaseProfiler (Eurofins Pharma Discovery Services UK, Dundee); JAK3 also ChemPartner

[2] = system: SD rats; experiment: Acute toxicity in SD rats, oral; conditions: SD rats; oral 0.4 g/kg to 2.0 g/kg
[3] = Acute toxicity in SD rats, oral; conditions: Sprague Dawley, rat, in vivo, po
[4] = target: T2, ERBB2 (Homo sapiens, UniProt P04626); experiment: Cys-containing kinase family panel (EurofinsCerep); format: biochemical
T2 construct: EurofinsCerep (contract assay service)
T2 sequence (P04626 23-1255): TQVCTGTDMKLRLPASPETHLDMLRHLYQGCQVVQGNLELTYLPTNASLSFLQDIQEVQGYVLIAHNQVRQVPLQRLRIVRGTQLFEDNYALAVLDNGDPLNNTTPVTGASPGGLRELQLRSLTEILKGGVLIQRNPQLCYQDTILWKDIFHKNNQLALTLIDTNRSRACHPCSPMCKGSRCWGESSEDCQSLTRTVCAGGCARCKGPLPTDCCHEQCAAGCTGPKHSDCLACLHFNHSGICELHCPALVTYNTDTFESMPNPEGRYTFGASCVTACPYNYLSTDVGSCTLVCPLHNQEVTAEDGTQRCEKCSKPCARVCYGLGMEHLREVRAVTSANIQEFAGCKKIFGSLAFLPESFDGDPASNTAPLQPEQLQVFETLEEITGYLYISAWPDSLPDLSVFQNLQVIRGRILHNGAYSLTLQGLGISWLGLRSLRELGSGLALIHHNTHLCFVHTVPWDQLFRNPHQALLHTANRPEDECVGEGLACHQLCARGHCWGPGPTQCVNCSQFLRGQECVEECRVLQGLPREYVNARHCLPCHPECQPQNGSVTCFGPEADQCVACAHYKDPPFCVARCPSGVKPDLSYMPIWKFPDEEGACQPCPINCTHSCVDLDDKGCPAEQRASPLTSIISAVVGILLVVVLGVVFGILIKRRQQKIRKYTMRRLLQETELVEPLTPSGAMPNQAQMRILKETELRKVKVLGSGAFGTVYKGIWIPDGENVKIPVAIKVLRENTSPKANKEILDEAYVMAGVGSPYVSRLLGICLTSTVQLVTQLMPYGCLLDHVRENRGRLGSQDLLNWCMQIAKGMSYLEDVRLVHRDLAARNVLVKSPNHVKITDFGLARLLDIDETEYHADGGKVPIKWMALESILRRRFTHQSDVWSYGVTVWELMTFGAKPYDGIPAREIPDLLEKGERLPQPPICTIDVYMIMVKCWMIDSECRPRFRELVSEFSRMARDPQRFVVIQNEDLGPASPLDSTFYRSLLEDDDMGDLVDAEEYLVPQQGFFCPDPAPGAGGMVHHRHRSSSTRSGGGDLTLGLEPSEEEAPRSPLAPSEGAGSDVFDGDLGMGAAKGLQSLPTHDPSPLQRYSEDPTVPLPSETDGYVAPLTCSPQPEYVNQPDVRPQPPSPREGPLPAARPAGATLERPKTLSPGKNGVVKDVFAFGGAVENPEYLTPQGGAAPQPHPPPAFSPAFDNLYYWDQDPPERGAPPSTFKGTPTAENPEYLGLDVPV

[5] = system: GM-CSF-induced JAK/STAT5 phosphorylation in TF-1 cells (JAK2); experiment: STAT5 phosphorylation induced by GM-CSF in TF-1 cells, Western blot
[6] = target: T3, BMX (Homo sapiens, UniProt P51813); experiment: Cys-containing kinase family panel (EurofinsCerep); format: biochemical
T3 construct: EurofinsCerep (contract assay service)

[7] = system: IL-4-induced JAK/STAT6 phosphorylation in THP-1 cells (JAK1/JAK3); experiment: STAT6 phosphorylation induced by IL-4 in THP-1 cells, Western blot; conditions: for IC50: Homo sapiens
[8] = target: T4, MAPKAP-K2 (Homo sapiens, UniProt P49137); experiment: Eurofins Kinase Profiler panel; format: biochemical; conditions: read-out: % inhibition (1μM), DMSO control=100%, lower=stronger
T4 construct: purchased Eurofins KinaseProfiler (Eurofins Pharma Discovery Services UK, Dundee); JAK3 also ChemPartner

[9] = target: T5, Flt3 (Homo sapiens, UniProt P36888); experiment: Eurofins Kinase Profiler panel; format: biochemical; conditions: read-out: % inhibition (1μM), DMSO control=100%, lower=stronger
T5 construct: purchased Eurofins Pharma Discovery Services UK Limited (Kinase Profiler screening platform)

[10] = system: IL-2-induced STAT5 phosphorylation (JAK1/JAK3); experiment: IL-2-induced pSTAT5 in total lymphocytes in hPBMCs, flow cytometry; format: cell-based; conditions: Homo sapiens, Lymphocyte, hPBMC total lymphocytes, trigger IL-2, readout pSTAT5
[11] = system: other kinases of the conserved cysteine panel (BMX, BTK, ITK, TXK, TEC, BLK, EGFR, ERBB4, ERBB2); experiment: Cys-containing kinase family panel, kinases other than JAK3 taken together; format: biochemical; conditions: 1 µM
Description: The assay protocol guides are commercially available from ChemPartner.

[12] = target: T6, CDK1 (Homo sapiens, UniProt P06493); experiment: Eurofins Kinase Profiler panel; format: biochemical; conditions: read-out: % inhibition (1μM), DMSO control=100%, lower=stronger
T6 construct: purchased Eurofins KinaseProfiler (Eurofins Pharma Discovery Services UK, Dundee); JAK3 also ChemPartner
T6 sequence (P06493 whole entry): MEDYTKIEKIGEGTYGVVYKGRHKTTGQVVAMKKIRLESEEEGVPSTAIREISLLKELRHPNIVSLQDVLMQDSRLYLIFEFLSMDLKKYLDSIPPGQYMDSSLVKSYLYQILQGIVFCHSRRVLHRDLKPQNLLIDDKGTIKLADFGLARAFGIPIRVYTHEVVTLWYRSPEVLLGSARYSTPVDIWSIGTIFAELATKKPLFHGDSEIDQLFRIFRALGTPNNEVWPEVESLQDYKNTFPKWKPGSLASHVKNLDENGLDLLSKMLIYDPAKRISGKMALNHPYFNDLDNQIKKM
T6 sequence (P14635 whole entry partner): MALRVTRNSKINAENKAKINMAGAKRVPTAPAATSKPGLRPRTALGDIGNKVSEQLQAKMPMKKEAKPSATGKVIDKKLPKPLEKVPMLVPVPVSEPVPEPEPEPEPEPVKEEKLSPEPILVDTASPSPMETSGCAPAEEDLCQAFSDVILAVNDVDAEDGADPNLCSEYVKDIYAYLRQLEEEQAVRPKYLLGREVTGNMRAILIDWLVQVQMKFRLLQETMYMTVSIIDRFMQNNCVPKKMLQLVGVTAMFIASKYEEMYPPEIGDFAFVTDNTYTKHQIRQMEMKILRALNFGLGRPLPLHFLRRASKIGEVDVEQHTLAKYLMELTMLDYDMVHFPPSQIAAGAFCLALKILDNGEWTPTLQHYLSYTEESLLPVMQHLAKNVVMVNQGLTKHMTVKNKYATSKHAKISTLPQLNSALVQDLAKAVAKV

[13] = system: IFN-γ-induced JAK/STAT1 phosphorylation in U2OS cells (JAK1/JAK2); experiment: STAT1 phosphorylation induced by IFN-γ in U2OS cells, Western blot; conditions: for IC50: Homo sapiens
[14] = target: T7, IKKα (Homo sapiens, UniProt O15111); experiment: Eurofins Kinase Profiler panel; format: biochemical; conditions: read-out: % inhibition (1μM), DMSO control=100%, lower=stronger
T7 construct: purchased Eurofins KinaseProfiler (Eurofins Pharma Discovery Services UK, Dundee); JAK3 also ChemPartner
T7 sequence (O15111 whole entry): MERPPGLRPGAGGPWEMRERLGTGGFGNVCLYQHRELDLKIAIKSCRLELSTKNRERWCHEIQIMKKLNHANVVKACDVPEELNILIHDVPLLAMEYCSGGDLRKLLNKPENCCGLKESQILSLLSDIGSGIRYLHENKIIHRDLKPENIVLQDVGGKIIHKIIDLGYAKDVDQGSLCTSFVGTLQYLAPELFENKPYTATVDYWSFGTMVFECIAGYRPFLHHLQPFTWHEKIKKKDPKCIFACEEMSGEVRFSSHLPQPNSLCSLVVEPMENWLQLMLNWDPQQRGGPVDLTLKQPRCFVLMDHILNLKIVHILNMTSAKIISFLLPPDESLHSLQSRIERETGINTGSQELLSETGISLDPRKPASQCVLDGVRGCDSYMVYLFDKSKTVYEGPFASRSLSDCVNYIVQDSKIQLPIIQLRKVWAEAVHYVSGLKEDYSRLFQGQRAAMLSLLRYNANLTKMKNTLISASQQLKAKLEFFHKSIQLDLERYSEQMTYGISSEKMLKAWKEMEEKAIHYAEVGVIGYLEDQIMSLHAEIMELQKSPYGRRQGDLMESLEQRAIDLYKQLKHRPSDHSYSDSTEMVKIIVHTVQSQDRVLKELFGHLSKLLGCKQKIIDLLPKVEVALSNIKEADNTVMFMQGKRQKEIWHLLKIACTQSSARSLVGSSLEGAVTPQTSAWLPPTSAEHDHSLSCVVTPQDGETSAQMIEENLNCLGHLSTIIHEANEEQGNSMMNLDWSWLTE

[15] = target: T8, B-Raf (Homo sapiens, UniProt P15056); experiment: Eurofins Kinase Profiler panel; format: biochemical; conditions: read-out: % inhibition (1μM), DMSO control=100%, lower=stronger
T8 construct: purchased Eurofins KinaseProfiler (Eurofins Pharma Discovery Services UK, Dundee); JAK3 also ChemPartner
T8 sequence (P15056 whole entry): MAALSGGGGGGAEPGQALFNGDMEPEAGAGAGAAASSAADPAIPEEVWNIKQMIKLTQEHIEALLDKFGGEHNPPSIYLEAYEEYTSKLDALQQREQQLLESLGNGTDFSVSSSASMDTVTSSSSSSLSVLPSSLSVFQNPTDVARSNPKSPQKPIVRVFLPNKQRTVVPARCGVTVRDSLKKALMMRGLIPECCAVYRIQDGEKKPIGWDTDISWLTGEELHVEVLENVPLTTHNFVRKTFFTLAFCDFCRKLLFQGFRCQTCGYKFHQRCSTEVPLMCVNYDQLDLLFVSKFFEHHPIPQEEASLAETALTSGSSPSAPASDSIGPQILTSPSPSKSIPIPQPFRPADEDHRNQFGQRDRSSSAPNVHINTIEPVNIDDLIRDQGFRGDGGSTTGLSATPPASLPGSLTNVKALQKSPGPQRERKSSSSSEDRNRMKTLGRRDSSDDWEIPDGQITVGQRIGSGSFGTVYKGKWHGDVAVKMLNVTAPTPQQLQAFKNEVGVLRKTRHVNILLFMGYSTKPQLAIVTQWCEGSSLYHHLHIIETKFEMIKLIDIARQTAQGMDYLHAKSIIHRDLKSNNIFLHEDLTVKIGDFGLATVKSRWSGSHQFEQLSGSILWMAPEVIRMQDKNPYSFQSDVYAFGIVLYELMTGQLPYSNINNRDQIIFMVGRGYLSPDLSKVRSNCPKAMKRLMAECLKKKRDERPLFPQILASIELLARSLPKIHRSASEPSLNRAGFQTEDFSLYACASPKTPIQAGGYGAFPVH

[16] = system: BALB/c mice; experiment: Acute oral toxicity and haematology analysis in BALB/c mice; conditions: for HCT / HGB / LY / MCH / MCHC / MCV / MO / PLT / RBC / WBC: Balb/c mice
[17] = target: T9, ALK4 (Homo sapiens, UniProt P36896); experiment: Eurofins Kinase Profiler panel; format: biochemical; conditions: read-out: % inhibition (1μM), DMSO control=100%, lower=stronger
T9 construct: purchased Eurofins KinaseProfiler (Eurofins Pharma Discovery Services UK, Dundee); JAK3 also ChemPartner
T9 sequence (P36896 24-505): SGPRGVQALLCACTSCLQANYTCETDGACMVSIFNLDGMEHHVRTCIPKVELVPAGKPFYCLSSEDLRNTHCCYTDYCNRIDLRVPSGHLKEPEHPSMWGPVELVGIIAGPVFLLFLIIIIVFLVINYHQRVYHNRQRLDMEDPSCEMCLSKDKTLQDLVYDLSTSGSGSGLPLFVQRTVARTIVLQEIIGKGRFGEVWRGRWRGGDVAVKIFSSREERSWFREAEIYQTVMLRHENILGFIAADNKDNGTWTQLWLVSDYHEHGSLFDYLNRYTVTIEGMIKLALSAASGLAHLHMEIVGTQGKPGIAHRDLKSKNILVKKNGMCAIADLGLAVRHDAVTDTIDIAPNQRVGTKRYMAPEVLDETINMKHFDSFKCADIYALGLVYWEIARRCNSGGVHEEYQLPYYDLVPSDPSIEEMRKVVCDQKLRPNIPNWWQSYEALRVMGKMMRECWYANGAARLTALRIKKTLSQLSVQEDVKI

[18] = target: T10, JNK1α1 (Homo sapiens, UniProt P45983); experiment: Eurofins Kinase Profiler panel; format: biochemical; conditions: read-out: % inhibition (1μM), DMSO control=100%, lower=stronger
T10 construct: purchased Eurofins KinaseProfiler (Eurofins Pharma Discovery Services UK, Dundee); JAK3 also ChemPartner

[19] = target: T11, ITK (Homo sapiens, UniProt Q08881); experiment: Cys-containing kinase family panel (EurofinsCerep); format: biochemical
T11 construct: EurofinsCerep (contract assay service)
T11 sequence (Q08881 whole entry): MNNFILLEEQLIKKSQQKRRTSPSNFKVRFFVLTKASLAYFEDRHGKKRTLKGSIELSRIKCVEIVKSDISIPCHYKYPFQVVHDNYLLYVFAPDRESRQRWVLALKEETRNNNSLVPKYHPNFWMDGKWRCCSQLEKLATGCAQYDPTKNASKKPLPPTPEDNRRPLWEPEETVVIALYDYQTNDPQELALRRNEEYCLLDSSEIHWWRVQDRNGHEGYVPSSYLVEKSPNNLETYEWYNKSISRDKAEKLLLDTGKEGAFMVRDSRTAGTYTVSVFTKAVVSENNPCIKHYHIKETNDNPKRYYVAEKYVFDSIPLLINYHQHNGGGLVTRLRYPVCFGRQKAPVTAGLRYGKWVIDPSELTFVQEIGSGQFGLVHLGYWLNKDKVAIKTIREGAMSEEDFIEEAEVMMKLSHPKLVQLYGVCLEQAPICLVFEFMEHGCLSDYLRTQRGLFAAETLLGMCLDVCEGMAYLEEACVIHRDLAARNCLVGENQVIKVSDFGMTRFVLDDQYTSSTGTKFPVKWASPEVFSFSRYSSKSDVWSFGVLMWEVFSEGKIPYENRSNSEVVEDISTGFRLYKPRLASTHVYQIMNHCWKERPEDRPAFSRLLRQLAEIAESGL

T1 sequence (P47809 2-397 limits assumed): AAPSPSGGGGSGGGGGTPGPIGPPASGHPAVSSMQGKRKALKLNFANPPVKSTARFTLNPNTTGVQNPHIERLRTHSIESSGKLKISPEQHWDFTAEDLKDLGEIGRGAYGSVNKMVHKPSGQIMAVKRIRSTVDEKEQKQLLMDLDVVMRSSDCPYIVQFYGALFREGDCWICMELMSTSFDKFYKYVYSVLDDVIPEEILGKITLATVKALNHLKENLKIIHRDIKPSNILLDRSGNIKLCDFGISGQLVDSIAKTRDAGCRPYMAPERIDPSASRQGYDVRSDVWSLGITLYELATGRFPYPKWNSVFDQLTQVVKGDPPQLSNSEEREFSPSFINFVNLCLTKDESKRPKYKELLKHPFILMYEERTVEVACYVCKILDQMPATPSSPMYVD

In the case of `C=CC(=O)N[C@@H]1CCCN(c2ncnc3[nH]ccc23)C1` [RB1], the activity at 1 µM [1] is reported as 114%, the “adverse effects on body weight, behaviour or appetite” value [2] is reported as “no observable adverse effects” and the LD50 [3] is reported as > 2000 mg/kg. For the same compound, the inhibition at 1 µM [4] was 2.85%, the “Selectivity JAK2/JAK3” value ([5]; GM-CSF, pSTAT5) was > 1000 and the IC50 ([5]; Homo sapiens) was > 50 µM. For the same compound, the inhibition at 1 µM [6] was 4%, the IC50 ([7]; THP-1, read-out: IC50 (nM) JAK1) was > 50000 nM and the IC50 ([7]; THP-1, read-out: IC50 (nM) JAK3) was 53.1 nM. For the same compound, the “inhibition of JAK3 phosphorylation compared with JAK1/JAK2-mediated STATs phosphorylation” value ([7]; IL-4 cell-based assay in THP-1 cells) was “over 1000 folds”, the “Selectivity JAK1/JAK3” value ([7]; THP-1, IL-4, pSTAT6) was > 1000 and the “selectivity for JAK3 activity over JAK1 or JAK2” value ([7]; battery of cytokine-stimulated cell-based assays) was > 100 fold. For the same compound, the activity at 1 µM [8] was 97%, the activity at 1 µM [9] was 75% and the IC50 [10] was 0.105 µM. For the same compound, the “inhibition of other kinases of the conserved cysteine panel” value [11] was “less than 15%”, the activity at 1 µM [12] was 96% and the IC50 ([13]; U2OS, read-out: IC50 (nM) JAK1) was > 50000 nM. The IC50 ([13]; U2OS, read-out: IC50 (nM) JAK2) was > 50000 nM, the “IFN-γ-induced phosphorylation of STAT1” value ([13]; U2OS cells, RB1 at concentrations over 50 μM) was “not affected” and the “Selectivity JAK1/JAK3” value ([13]; U2OS, IFN-γ, pSTAT1) was > 1000. For the same compound, the “Selectivity JAK2/JAK3” value ([13]; U2OS, IFN-γ, pSTAT1) was > 1000, the activity at 1 µM [14] was 97% and the activity at 1 µM [15] was 90%. The “acute haematological toxicity in WBC and lymphocyte counts” value ([16]; BALB/c mice, oral, even at 1000 mg/kg, after 14 days) was “did not induce significant acute haematological toxicity”, the “acute oral toxicity, adverse effects” value ([16]; BALB/c mice, single doses, 14-days recovery time) was “no obvious adverse results” and the HCT ([16]; oral 100 mg/kg) was 46.94 ± 1.80%. For the same compound, the HGB ([16]; oral 100 mg/kg) was 168.12 ± 7.36 g/L, the LY ([16]; oral 100 mg/kg) was 65.93 ± 3.09% and the MCH ([16]; oral 100 mg/kg) was 16.13 ± 0.12 pg. The MCHC ([16]; oral 100 mg/kg) was 369.77 ± 2.01 g/L, the MCV ([16]; oral 100 mg/kg) was 48.98 ± 0.22 fL and the MO ([16]; oral 100 mg/kg) was 6.99 ± 1.26%. The PLT ([16]; oral 100 mg/kg) was 385.34 ± 43.61 1×109/L, the RBC ([16]; oral 100 mg/kg) was 9.20 ± 0.31 1×1012/L and the WBC ([16]; oral 100 mg/kg) was 9.12 ± 0.98 1×109/L. For the same compound, the HCT ([16]; oral 300 mg/kg) was 44.82 ± 1.77%, the HGB ([16]; oral 300 mg/kg) was 158.49 ± 6.40 g/L and the LY ([16]; oral 300 mg/kg) was 75.04 ± 3.17%. For the same compound, the MCH ([16]; oral 300 mg/kg) was 15.98 ± 0.22 pg, the MCHC ([16]; oral 300 mg/kg) was 360.54 ± 3.84 g/L and the MCV ([16]; oral 300 mg/kg) was 50.03 ± 0.08 fL. The MO ([16]; oral 300 mg/kg) was 6.50 ± 0.86%, the PLT ([16]; oral 300 mg/kg) was 360.12 ± 33.74 1×109/L and the RBC ([16]; oral 300 mg/kg) was 9.90 ± 0.22 1×1012/L. The WBC ([16]; oral 300 mg/kg) was 8.64 ± 1.05 1×109/L, the HCT ([16]; oral 1000 mg/kg) was 43.53 ± 1.68% and the HGB ([16]; oral 1000 mg/kg) was 150.33 ± 6.94 g/L. The LY ([16]; oral 1000 mg/kg) was 69.43 ± 1.88%, the MCH ([16]; oral 1000 mg/kg) was 16.08 ± 0.09 pg and the MCHC ([16]; oral 1000 mg/kg) was 355.00 ± 2.16 g/L. The MCV ([16]; oral 1000 mg/kg) was 49.82 ± 0.12 fL, the MO ([16]; oral 1000 mg/kg) was 8.23 ± 1.08% and the PLT ([16]; oral 1000 mg/kg) was 327.67 ± 46.45 1×109/L. The RBC ([16]; oral 1000 mg/kg) was 10.44 ± 0.16 1×1012/L, the WBC ([16]; oral 1000 mg/kg) was 9.33 ± 1.12 1×109/L and the activity at 1 µM [17] was 101%. The activity at 1 µM [18] was 101% and the inhibition at 1 µM [19] was -5.9%.
